Results published in patent US20090181896A1, “Use of Natriuretic Peptide Receptor Antagonists to Treat Ocular, Otic and Nasal Edemetous Conditions” (ALCON RESEARCH, LTD., priority 2006, published 2009).

What was measured:
Assay type in all cases: cell-based
[1] = biological target: T1, Type-B natriuretic peptide receptor in human corneal epithelial cells (Homo sapiens, UniProt P20594); assay: Natriuretic peptide-stimulated cGMP production (guanylyl cyclase activity, EIA) in human corneal epithelial cells; details: cGMP production via type-B receptor
T1 construct: primary human corneal epithelial cells (P-CEPI) were isolated from human donor eyes; endogenous in cells; host or cells: primary human corneal epithelial cells (P-CEPI) and SV40-immortalized human corneal epithelial cells (CEPI-17-CL4)
T1 sequence (P20594 23-1047): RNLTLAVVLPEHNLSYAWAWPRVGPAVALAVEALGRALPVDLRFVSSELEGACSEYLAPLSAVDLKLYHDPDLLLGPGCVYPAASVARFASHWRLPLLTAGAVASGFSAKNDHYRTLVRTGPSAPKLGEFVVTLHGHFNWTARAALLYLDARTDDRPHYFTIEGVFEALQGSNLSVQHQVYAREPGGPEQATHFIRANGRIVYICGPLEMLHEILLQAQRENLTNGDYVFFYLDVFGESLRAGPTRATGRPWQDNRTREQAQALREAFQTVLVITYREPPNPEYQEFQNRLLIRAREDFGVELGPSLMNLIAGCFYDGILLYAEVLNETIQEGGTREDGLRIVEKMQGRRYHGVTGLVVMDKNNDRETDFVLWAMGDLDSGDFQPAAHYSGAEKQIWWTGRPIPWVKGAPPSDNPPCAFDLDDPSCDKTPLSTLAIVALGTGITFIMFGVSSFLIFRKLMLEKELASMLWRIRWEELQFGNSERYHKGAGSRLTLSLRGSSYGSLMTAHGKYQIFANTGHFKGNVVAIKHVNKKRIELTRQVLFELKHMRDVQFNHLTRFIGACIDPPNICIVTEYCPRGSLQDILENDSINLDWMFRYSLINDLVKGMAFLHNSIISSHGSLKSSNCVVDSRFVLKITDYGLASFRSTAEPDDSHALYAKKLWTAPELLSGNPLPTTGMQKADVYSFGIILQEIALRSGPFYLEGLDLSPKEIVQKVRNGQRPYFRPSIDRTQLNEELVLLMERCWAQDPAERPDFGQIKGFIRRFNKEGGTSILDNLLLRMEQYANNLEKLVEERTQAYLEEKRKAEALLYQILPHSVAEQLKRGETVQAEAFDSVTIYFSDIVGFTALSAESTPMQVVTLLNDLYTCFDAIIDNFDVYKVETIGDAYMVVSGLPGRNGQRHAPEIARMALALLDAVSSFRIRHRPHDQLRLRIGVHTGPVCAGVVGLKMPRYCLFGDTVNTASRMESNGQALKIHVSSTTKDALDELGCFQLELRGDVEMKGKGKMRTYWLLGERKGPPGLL
Protocol: Thus, primary human corneal epithelial cells (P-CEPI) were isolated from human donor eyes ≦24 hr postmortem and were cultured in EpiLife medium (Cascade Biologics, Portland, Oreg.) containing 1% human corneal growth supplement, 100 u/ml penicillin G, 100 mg/ml streptomycin sulfate. Culture plates were coated with fibronectin to help the cells adhere to the bottom of the plates. […]
In brief, compounds of interest were diluted in ethanol so that the final ethanol concentration was 1%, a concentration well tolerated by the cells. […] Finally, ice-cold 0.1 M sodium acetate (220 ml, pH 11.5-12.0) was added to neutralize the samples before analysis of cGMP by an enzyme immunoassay (EIA) kit. cGMP production in the cells was measured using the EIA kit purchased from Amersham Pharmacia Biotech (Piscataway, N.J.). […] Data were analyzed using a non-linear, iterative curve-fitting computer program (IDBS, Surrey, UK) and Origin software package (Microcal Software, Inc., Northampton, Mass.) (Sharif et al. 1996; Crider et al. 2003). […]

[2] = biological target: T2, Type-A natriuretic peptide receptor in human conjunctival epithelial cells (Chang cells) (Homo sapiens, UniProt P16066); assay: Natriuretic peptide-stimulated cGMP production (guanylyl cyclase activity, EIA) in human conjunctival epithelial cells (Chang cells); details: for Agonist character in words: cGMP production; for Intrinsic Activity (Emax; % Max. Response): cGMP production via type-A receptor
T2 construct: the most relevant cells are Chang cells (Clone 1-5C-4 Wong-Kilbourne Derivative); These cells were obtained from ATCC; host or cells: Chang cells (Clone 1-5C-4 Wong-Kilbourne Derivative), human conjunctival epithelial cells
T2 sequence (P16066 33-1061): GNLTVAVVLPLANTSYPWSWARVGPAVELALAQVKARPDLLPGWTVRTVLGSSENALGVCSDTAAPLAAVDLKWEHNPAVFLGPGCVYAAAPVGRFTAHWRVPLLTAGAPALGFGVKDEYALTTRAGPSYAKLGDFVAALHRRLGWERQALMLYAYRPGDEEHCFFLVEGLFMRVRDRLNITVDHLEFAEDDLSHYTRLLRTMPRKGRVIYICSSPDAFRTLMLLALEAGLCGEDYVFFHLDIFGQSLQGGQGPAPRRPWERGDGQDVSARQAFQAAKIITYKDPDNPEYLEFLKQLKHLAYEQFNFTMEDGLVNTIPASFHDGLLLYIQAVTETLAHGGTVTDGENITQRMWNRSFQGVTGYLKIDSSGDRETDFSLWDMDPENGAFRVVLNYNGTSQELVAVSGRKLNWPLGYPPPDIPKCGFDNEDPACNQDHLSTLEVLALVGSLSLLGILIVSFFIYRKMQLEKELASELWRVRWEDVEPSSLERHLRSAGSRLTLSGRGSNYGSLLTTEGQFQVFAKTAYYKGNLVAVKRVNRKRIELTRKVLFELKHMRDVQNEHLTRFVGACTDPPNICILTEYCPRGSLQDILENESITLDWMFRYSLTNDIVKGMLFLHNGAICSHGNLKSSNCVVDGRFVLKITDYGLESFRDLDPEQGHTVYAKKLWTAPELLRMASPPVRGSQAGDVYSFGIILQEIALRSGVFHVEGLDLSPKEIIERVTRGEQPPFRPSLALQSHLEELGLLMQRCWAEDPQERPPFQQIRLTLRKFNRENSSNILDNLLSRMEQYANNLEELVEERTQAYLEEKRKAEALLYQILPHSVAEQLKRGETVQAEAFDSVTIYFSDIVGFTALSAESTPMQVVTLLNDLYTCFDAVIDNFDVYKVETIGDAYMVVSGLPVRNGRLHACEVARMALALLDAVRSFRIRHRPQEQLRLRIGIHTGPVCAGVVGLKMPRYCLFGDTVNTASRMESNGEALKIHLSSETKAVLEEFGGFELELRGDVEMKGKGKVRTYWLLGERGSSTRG
Protocol: These cells were obtained from ATCC (Manassas, Va.) and cultured in medium 199, containing 10% fetal bovine serum and […] Gentamicin. (obtained from Gibco/Invitrogen; Carlsbad, Calif.).
Cells were seeded in 48-wells culture plates. On reaching confluence, the cells were rinsed twice with 0.5 ml Dulbeco's modified Eagle's medium (DMEM)/F-12. […] Natriuretic peptides (American Peptide Co. Inc., Sunnyvale, Calif.; Peninsula Labs. San Carlos, Calif.) were then added at the end of this period and the reaction was allowed to proceed for another 15 minutes at 23° C. After aspiration of the reaction medium, ice cold 0.1 M acetic acid ([…], pH 3.5) was added for the termination of cGMP synthesis and cell lysis. Finally, ice-cold 0.1 M sodium acetate ([…], pH 11.5-12.0) was added to neutralize the samples before analysis of cGMP by an enzyme immunoassay (EIA) kit. cGMP production in the cells was measured using the EIA kit purchased from Amersham Pharmacia Biotech (Piscataway, N.J.). This assay was conducted according to the package insert in an automated manner using a robotic workstation (Biomek 2000; Beckman Instrument, Fullerton, Calif.) (Sharif et al. Characterization of the ocular anti-allergic and anti-histaminic effects of Olopatadine (AL-4943A), a novel drug for treating ocular allergic diseases. J. Pharmacology & Experimental Therapeutics 278, 1251-1260, 1996; Crider et al. Pharmacological characterization of serotonin receptor (5HT7) stimulating cAMP production in human corneal epithelial cells. Invest. Ophthalmol. Vis. Sci. 44: 4837-4844, 2003). Data were analyzed using a non-linear, iterative curve-fitting computer program (IDBS, Surrey, UK) and Origin software package (Microcal Software, Inc., Northampton, Mass.) (Sharif et al. 1996; Crider et al. 2003).

[3] = biological target: T3, type-B natriuretic peptide receptor in immortalized human corneal epithelial (CEPI-17-CL4) cells (Homo sapiens, UniProt P20594); assay: Antagonism of CNP fragment-induced cGMP production in immortalized human corneal epithelial (CEPI-17-CL4) cells; details: mean ± SEM
T3 construct: primary human corneal epithelial cells (P-CEPI) were isolated from human donor eyes; endogenous in cells; host or cells: primary human corneal epithelial cells (P-CEPI) and SV40-immortalized human corneal epithelial cells (CEPI-17-CL4)
T3 sequence (P20594 23-1047): T1 sequence (P20594 23-1047)

| Compound | Intrinsic Activity (Emax; % Max. Response) [1] | Agonist character in words [2] | Intrinsic Activity (Emax; % Max. Response) [2] | Ki [3] |
| --- | --- | --- | --- | --- |
| C-type natriuretic peptide [CNP] | 100% | weak partial agonist | 26% | – |
| O=C1Nc2ccccc2C1=O [isatin] | – | – | – | 18 ± 4 µM |
| brain natriuretic peptide [BNP] | 50.2% | potent full agonists | 94% | – |
